In patent US20210343368A1, “Method for Engineering Synthetic Cis-Regulatory DNA” (Max-Delbrück-Centrum für Molekulare Medizin in der …, priority 2018, published 2021):

Experiments:
[1] = test system: RELA KO MES-hGICs; assay: FACS quantification of MGT #1 in RELA KO MES-hGICs; type: cell-based, human; conditions: inhibitor added in RELA KO cells
Experimental: (§1) FACS analysis: Analysis was performed with FlowJo_V10.
Canonical NFkB activation can occur downstream TNFα signaling as well as by non-canonical genotoxic stress.

[2] = test system: A549 cells; assay: IncuCyte longitudinal MGT #1 fluorescence; type: cell-based, human; conditions: GSK126 together with TGFB signaling
Experimental: IncuCyte: IncuCyte automated longitudinal imaging was performed in 96 wells black walls plates (Greiner). 300,000 cells per plate were seeded to reach optimal confluence at the end of the experiment. GSK126 was aliquoted using a D300e, whereas TGFB1+2 were manually aliquoted to each well. Both were refreshed every second day. The last timepoint was independently verified using a plate reader (BMC Clariostar).
Ezh2 inhibition can support Kras-driven EMT in several mouse and human lung cancer cells^41. In this setting, we tested the use of sLCRs in reflecting cellular and molecular responses to biological and chemical stimuli.

[3] = test system: A549-MGT #1low cells; assay: Cytokine screening, microplate reader MGT #1 fluorescence; type: cell-based, human; conditions: cytokine combined with GSK126
Experimental: Phenotypic screening: Tumor cells were propagated as described above until the screening. Then we seeded 15′000/50 μl/well in 384 well plates (Corning), in Gibco FluoroBrite DMEM medium supplemented with the appropriate growth factors. Cells were dispensed as 50 μl suspension into each well using the SPARK20M Injector system (50 μl injection volume; 100 μl/s injection speed). For non-adherent cells (e.g. GICs), cells were further centrifuge at 1500 rpm for 1 h30 min at 37° C. Bottom reading fluorescence was scanned using a SPARM 20M TECAN plate reader at 37° C. in a 5% CO2-95% air (3% for GICs) in a humidified cassette, with the following settings for mVenus: Monochromator, Ex 505 nm±20 nm, Em 535 nm±7.5 nm, manual gain:198, flashes: 35, Integration time:40 μs. In independent replicas, cell viability was measured with 0.02% AlamarBlue solution in FluoroBrite medium with the following settings: Fluorescence Top reading. Monochromator, Ex 565 nm±10 nm, Em 592 nm±10 nm, manual gain: 88, flashes: 30, Integration time:40 μs.
DMSO-soluble compounds such as GSK126, were robotically aliquoted using a D300e, whereas cytokines were robotically aliquoted to each well using an Andrew pipetting robot (AndrewAlliance), using the following concentrations:
To exploit Ezh2 inhibition and MGT #1 as a framework to clarify the signaling basis of EMT in NSCLC cells, we next performed a cytokine screening in GSK126- and vehicle-treated A549-MGT #1^low cells.

[4] = test system: A549 cells; assay: FACS profile of MGT #1 expression and cell morphology; type: cell-based, human
Experimental: as §1

[5] = test system: MES-hGICs-MGT #1low; assay: Medium-throughput cytokine screening, bottom reading fluorescence; type: cell-based, human; conditions: up to 48 hours from stimulation
Experimental: Phenotypic screening: Tumor cells were propagated as described above until the screening. Then we seeded 15′000/50 μl/well in 384 well plates (Corning), in Gibco FluoroBrite DMEM medium supplemented with the appropriate growth factors. Cells were dispensed as 50 μl suspension into each well using the SPARK20M Injector system (50 μl injection volume; 100 μl/s injection speed). For non-adherent cells (e.g. GICs), cells were further centrifuge at 1500 rpm for 1 h30 min at 37° C. Bottom reading fluorescence was scanned using a SPARM 20M TECAN plate reader at 37° C. in a 5% CO2-95% air (3% for GICs) in a humidified cassette, with the following settings for mVenus: Monochromator, Ex 505 nm±20 nm, Em 535 nm±7.5 nm, manual gain:198, flashes: 35, Integration time:40 μs. In independent replicas, cell viability was measured with 0.02% AlamarBlue solution in FluoroBrite medium with the following settings: Fluorescence Top reading. Monochromator, Ex 565 nm±10 nm, Em 592 nm±10 nm, manual gain: 88, flashes: 30, Integration time:40 μs. […]
Human GICs and GSCs are consistently propagated under “NBE” conditions, which stands for serum-free Neurobasal media supplemented with basic FGF and EGF^25. […] Next, GICs were stimulated with individual cytokines in biological and technical replica followed by continuous fluorescence bottom reading in a pre-defined time course experiment. […]

[6] = test system: MCF7 cells; assay: FACS of MGT #1 expression in breast cancer cells; type: cell-based; conditions: short-term treatment
Experimental: (§2) The MCF7, MDA-231, A549 and H1944, cell lines (kindly provided by the Rene Bernards lab, NKI) were cultured in RPMI medium. All cell lines were supplemented with 10% FBS, and 5% penicillin and streptomycin at 37° C. in a 5% CO2-95% air incubator.
(§3) Tumor subtypes are genetically engraved in breast cancer cells^40. […] To confirm that MGT #1 expression reflects that actual breast cancer subtype identity, we FACS sorted and sub-cloned the top MCF7-MGT #1 and the mid MDA-231-MGT #1 expressing cells. Nevertheless, further propagation of the FACS-sorted populations reestablished pre-sorting homeostasis, with MCF7 expressing lower levels of MGT #1 than MDA-231.

[7] = test system: MDA-231 cells; assay: FACS of MGT #1 expression in breast cancer cells; type: cell-based; conditions: short-term treatment
Experimental: as §2, §3

Q: With O=C(c1ccc(Nc2nccc(-c3cc4ccccc4s3)n2)cc1)N1CCC(N2CCCC2)CC1 [IkB kinase (IKK) inhibitor-16, reference compound] as the molecule, how does the “adaptive responses to TNFalpha (MGT #1)” value [1] read?
A: further restrained adaptive responses to TNFalpha

Q: Which “MGT #1 fluorescence, longitudinal measurement” value [2] does the source give for CC[C@H](C)n1cc(C)c2c(C(=O)NCc3c(C)cc(C)[nH]c3=O)cc(-c3ccc(N4CCNCC4)nc3)cc21 [GSK126] here?
A: cooperatively induced

Q: What about the “MGT #1 expression, fluorescence output” value [3] of the same molecule?
A: modest additive effect

Q: And the “MGT #1 activation by flow cytometry” value ([4]; combination of TGFB signaling and GSK126)?
A: synergistically induce MGT #1 activation

Q: And the cell morphology change ([4]; single treatment)?
A: did not induce a cellular morphology changes

Q: What about the “MGT #1 expression by flow cytometry” value ([4]; single treatment, early time point) of the same molecule?
A: induces molecular transitions to a similar extent

Q: “TGFB1: Mesenchymal inducer, purified cytokine, known component of FBS” was tested. Which “MGT #1 expression, fluorescence output” value [3] did it give?
A: induces MGT #1 more substantially when combined with GSK126

Q: And the “MGT #1 / MGT #2 fluorescence normalized to naive GICs” value [5]?
A: does not strongly induce MGT #1

B1: TGFB2: EMT inducer (protein, UniProt P61812 303-414, looked up)
Transforming growth factor …: ALDAAYCFRNVQDNCCLRPLYIDFKRDLGWKWIHEPKGYNANFCAGACPYLWSSDTQHSRVLSLYNTINPEASASPCCVSQDLEPLTILYYIGKTPKIEQLSNMIVKSCKCS
Q: Which results are given for B1?
A: change of basal MGT #1 fluorescence [6]: did not strongly modify the basal MGT #1 fluorescence; change of basal MGT #1 fluorescence [7]: did not strongly modify the basal MGT #1 fluorescence
